Reference: US5061794A, “Cephalosporin derivatives, and antibacterial agents” (priority 1986, dated 1991)
Read-outs that look alike come from different tables or passages of the source.

Experiments:
[1] = test system: E. coli CSH2 (RK1); experiment: microbe, parasite or virus in culture; format: cell-based; conditions: Escherichia coli, 16 h, read-out: Minimum Inhibitory Concentration (MIC), *E. coli CSH2 (RK1), lactamase-producing strain; 10^6 CFU/ml
Procedure, shortened: (§1)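 Each organism, pre-grown overnight in Mueller Hinton broth, is inoculated at 10^6 CFU/ml onto Mueller Hinton agar series with increasing compound concentration; growth inhibition is scored after 16 h, 37° C., giving MIC (μg/ml).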

[2] = test system: E. coli CSH(RE45); experiment: microbe, parasite or virus in culture; format: cell-based; conditions: Escherichia coli, 16 h, read-out: Minimum Inhibitory Concentration (MIC), *E. coli CSH(RE45), lactamase-producing strain; 10^6 CFU/ml
Procedure, shortened: as §1

[3] = test system: Ps. cepacia 23; experiment: in vitro antibacterial activity, agar plate dilution method (MIC); format: cell-based, Pseudomonas cepacia; conditions: read-out: Minimum Inhibitory Concentration (MIC)
Procedure, shortened: as §1

[4] = test system: Ps. aeruginosa AKR17; experiment: as above; format: cell-based, Pseudomonas aeruginosa; conditions: Pseudomonas aeruginosa
Procedure, shortened: as §1

[5] = test system: Ps. aeruginosa IF03445; experiment: as above; format: cell-based, Pseudomonas aeruginosa; conditions: Pseudomonas aeruginosa, IF03445, 16 h, read-out: Minimum Inhibitory Concentration (MIC), Ps. aeruginosa IF03445; 10^6 CFU/ml
Procedure, shortened: as §1

[6] = test system: Ps. aeruginosa AK 109; experiment: as above; format: cell-based, Pseudomonas aeruginosa; conditions: Pseudomonas aeruginosa, AK109, 16 h
Procedure, shortened: as §1

[7] = test system: S. aureus 209P NIHJ-JC1; experiment: as above; format: cell-based; conditions: Staphylococcus aureus, 16 h
Procedure, shortened: as §1

[8] = test system: E. cloacae 963; experiment: as above; format: cell-based; conditions: 10^6 CFU/ml
Procedure, shortened: as §1

[9] = test system: S. marcescens No. 16-2; experiment: as above; format: cell-based; conditions: Serratia marcescens, NO.162, 16 h
Procedure, shortened: as §1

[10] = test system: M. morganii GN5407; experiment: as above; format: cell-based; conditions: Morganella morganii, GN5407, 16 h, read-out: Minimum Inhibitory Concentration (MIC), *M. morganii GN5407, lactamase-producing strain; 10^6 CFU/ml
Procedure, shortened: as §1

[11] = test system: K. pneumoniae No. 42; experiment: as above; format: cell-based; conditions: Klebsiella pneumoniae, NO.42, 16 h, read-out: Minimum Inhibitory Concentration (MIC), *K. pneumoniae No. 42, lactamase-producing strain; 10^6 CFU/ml
Procedure, shortened: as §1

[12] = test system: P. vulgaris No. 33; experiment: as above; format: cell-based; conditions: Proteus vulgaris, NO.33, 16 h, read-out: Minimum Inhibitory Concentration (MIC), *P. vulgaris No. 33, lactamase-producing strain; 10^6 CFU/ml
Procedure, shortened: as §1

[13] = test system: P. vulgaris HX-19; experiment: as above; format: cell-based; conditions: Proteus vulgaris, HX19, 16 h, read-out: Minimum Inhibitory Concentration (MIC)
Procedure, shortened: as §1

[14] = test system: E. cloacae Nek 39; experiment: as above; format: cell-based; conditions: Enterobacter cloacae, NEK39, 16 h, read-out: Minimum Inhibitory Concentration (MIC), *E. cloacae Nek 39, lactamase-producing strain; 10^6 CFU/ml
Procedure, shortened: as §1

[15] = test system: K. pneumoniae PCI-602; experiment: as above; format: cell-based; conditions: Klebsiella pneumoniae, PCI602, 16 h, 10^6 CFU/ml
Procedure, shortened: as §1

[16] = test system: S. marcescens IAM 1184; experiment: as above; format: cell-based; conditions: Serratia marcescens, IAM1184, 16 h, read-out: Minimum Inhibitory Concentration (MIC)
Procedure, shortened: as §1

[17] = test system: E. coli NIHJ JC2; experiment: as above; format: cell-based; conditions: Escherichia coli, NIHJJC2, 16 h, read-out: Minimum Inhibitory Concentration (MIC), E. coli NIHJ JC2, 10^6 CFU/ml, 37° C.
Procedure, shortened: as §1

[18] = test system: E. coli GN5482; experiment: as above; format: cell-based; conditions: Escherichia coli, GN5482, 16 h, read-out: Minimum Inhibitory Concentration (MIC), *E. coli GN5482, lactamase-producing strain; 10^6 CFU/ml
Procedure, shortened: as §1

[19] = test system: K. oxytoca GN10650; experiment: as above; format: cell-based; conditions: Klebsiella oxytoca, GN10650, 16 h, read-out: Minimum Inhibitory Concentration (MIC), *K. oxytoca GN10650, lactamase-producing strain; 10^6 CFU/ml
Procedure, shortened: as §1

[20] = test system: A. calcoaceticus No. 4; experiment: as above; format: cell-based, Acinetobacter calcoaceticus; conditions: Acinetobacter calcoaceticus, NO.4, 16 h, 10^6 CFU/ml
Procedure, shortened: as §1

[21] = Burkholderia cepacia, 16 h, Ps. cepacia 23, 10^6 CFU/ml
[22] = 16 h, Ps. aeruginosa AKR17, 10^6 CFU/ml, read-out: Minimum Inhibitory Concentration (MIC)
[23] = read-out: Minimum Inhibitory Concentration (MIC)
[24] = Enterobacter cloacae, 963, 16 h, read-out: Minimum Inhibitory Concentration (MIC), E. cloacae 963
[25] = read-out: Minimum Inhibitory Concentration (MIC), *S. marcescens No. 16-2, lactamase-producing strain, 10^6 CFU/ml
[26] = read-out: Minimum Inhibitory Concentration (MIC), K. pneumoniae PCI-602
[27] = S. marcescens IAM 1184, 10^6 CFU/ml
[28] = A. calcoaceticus No. 4, read-out: Minimum Inhibitory Concentration (MIC)
[29] = AKR17, 16 h, read-out: Minimum Inhibitory Concentration (MIC)
[30] = read-out: Minimum Inhibitory Concentration (MIC), Ps. aeruginosa AK 109, 10^6 CFU/ml
[31] = read-out: Minimum Inhibitory Concentration (MIC), A. calcoaceticus No. 4
[32] = S. aureus 209P NIHJ-JC1, 10^6 CFU/ml, 37° C., 16 hours, read-out: Minimum Inhibitory Concentration (MIC)

## CON=C(C(=O)NC1C(=O)N2C(C(=O)O)=C(CSc3ncc(-c4ccc(O)c(O)c4)o3)CSC12)c1csc(N)n1 (stereo not shown) [Ex. 62, sodium 75-[2-(2-aminothiazol-4-yl)-2-methoxyiminoacetamido]-3-[5-(3,4-dihydroxyphenyl)-oxazol-2-yl]thiomethyl-3-cephem-4-carboxylate]
[1]
  MIC: 0.025 µg/mL
[2]
  MIC: 0.05 µg/mL
[3]; [21]
  MIC: < 0.006 µg/mL
[4]; [22]
  MIC: > 100 µg/mL
[5]
  MIC: 1.56 µg/mL
[6]; [23]
  MIC: 3.12 µg/mL
[7]; read-out: Minimum Inhibitory Concentration (MIC), S. aureus 209P NIHJ-JC1, 10^6 CFU/ml, 37° C., 16 hours
  MIC: 1.56 µg/mL
[8]; [24]
  MIC: 0.05 µg/mL
[9]; [25]
  MIC: 6.25 µg/mL
[10]
  MIC: 0.1 µg/mL
[11]
  MIC: 0.025 µg/mL
[12]
  MIC: 0.025 µg/mL
[13]; P. vulgaris HX-19, 10^6 CFU/ml
  MIC: < 0.006 µg/mL
[14]
  MIC: 0.78 µg/mL
[15]; [26]
  MIC: < 0.006 µg/mL
[16]; [27]
  MIC: 0.025 µg/mL
[17]
  MIC: 0.2 µg/mL
[18]
  MIC: 1.56 µg/mL
[19]
  MIC: 3.12 µg/mL
[20]; [28]
  MIC: 0.2 µg/mL

## CCON=C(C(=O)N[C@@H]1C(=O)N2C(C(=O)[O-])=C(CSc3ncc(-c4ccc(O)c(O)c4)o3)CS[C@H]12)c1csc(N)n1.[Na+] [Ex. 63, sodium 7β-[2-(2-aminothiazol-4-yl)-2-ethoxyiminoacetamido]-3-[5-(3,4-dihydroxyphenyl)-oxazol-2-yl]thiomethyl-3-cephem-4-carboxylate]
[1]
  MIC: 0.0125 µg/mL
[2]
  MIC: 0.1 µg/mL
[3]; Burkholderia cepacia, 23, 16 h
  MIC: 0.1 µg/mL
[4]; [29]
  MIC: 100 µg/mL
[5]
  MIC: 1.56 µg/mL
[6]; [30]
  MIC: 1.56 µg/mL
[7]; [23]
  MIC: 3.12 µg/mL
[8]; [24]
  MIC: 0.2 µg/mL
[9]; [25]
  MIC: 6.25 µg/mL
[10]
  MIC: 0.1 µg/mL
[11]
  MIC: 0.1 µg/mL
[12]
  MIC: 0.025 µg/mL
[13]
  MIC: 0.0125 µg/mL
[14]
  MIC: 0.39 µg/mL
[15]; [26]
  MIC: < 0.006 µg/mL
[16]
  MIC: 0.1 µg/mL
[17]
  MIC: 0.39 µg/mL
[18]
  MIC: 1.56 µg/mL
[19]
  MIC: 3.12 µg/mL
[20]; [31]
  MIC: 0.78 µg/mL

## Nc1nc(/C(=N/OC(C(=O)O)c2ccc(O)c(O)c2)C(=O)N[C@@H]2C(=O)N3C(C(=O)O)=C(CSc4ncc(-c5ccc(O)c(O)c5)o4)CS[C@H]23)cs1 (stereo partly drawn) [Ex. 65, disodium 7β-(2-(2-aminothiazol-4-yl)-2-[(α-carboxylate-3,4-dihydroxybenzyl)oxyiminol]-acetamido}-3-[5-(3,4-dihydroxyphenyl)oxazol-2-yl]-thiomethyl-3-cephem-4-carboxylate]
[1]
  MIC: 0.05 µg/mL
[2]
  MIC: 0.05 µg/mL
[3]; [21]
  MIC: < 0.006 µg/mL
[4]; [22]
  MIC: 0.2 µg/mL
[5]
  MIC: 1.56 µg/mL
[6]; [23]
  MIC: 0.39 µg/mL
[7]; [23]
  MIC: 3.12 µg/mL
[8]; [24]
  MIC: 0.78 µg/mL
[9]; [23]
  MIC: 12.5 µg/mL
[10]
  MIC: 0.2 µg/mL
[11]
  MIC: 0.2 µg/mL
[12]
  MIC: 0.1 µg/mL
[13]; P. vulgaris HX-19, 10^6 CFU/ml
  MIC: 0.1 µg/mL
[14]
  MIC: 0.78 µg/mL
[15]; [26]
  MIC: < 0.006 µg/mL
[16]; [27]
  MIC: 0.2 µg/mL
[17]
  MIC: 1.56 µg/mL
[18]
  MIC: 6.25 µg/mL
[19]
  MIC: 0.2 µg/mL
[20]; [28]
  MIC: 0.05 µg/mL

## Nc1nc(/C(=N/OC2(C(=O)O)CC2)C(=O)N[C@@H]2C(=O)N3C(C(=O)O)=C(CSc4ncc(-c5ccc(O)c(O)c5)o4)CS[C@H]23)cs1 [Ex. 66, disodium 7β-[2-(2-aminothiazol-4-yl)-2-(1-carboxylate-1-cyclopropoxyimino)acetamido]-3-[5-(3,4-dihydroxyphenyl)oxazol-2-yl]thiomethyl-3-cephem-4-carboxylate]
[1]
  MIC: 0.0125 µg/mL
[2]
  MIC: 0.05 µg/mL
[3]; [21]
  MIC: < 0.006 µg/mL
[4]; [29]
  MIC: 3.12 µg/mL
[5]
  MIC: 0.78 µg/mL
[6]; [23]
  MIC: 0.39 µg/mL
[7]; [32]
  MIC: 25 µg/mL
[8]; Enterobacter cloacae, 16 h, E. cloacae 963, read-out: Minimum Inhibitory Concentration (MIC)
  MIC: 0.2 µg/mL
[9]; [23]
  MIC: 3.12 µg/mL
[10]
  MIC: 0.1 µg/mL
[11]
  MIC: 0.1 µg/mL
[12]
  MIC: 0.025 µg/mL
[13]
  MIC: 0.0125 µg/mL
[14]
  MIC: 0.1 µg/mL
[15]; [26]
  MIC: < 0.006 µg/mL
[16]; [27]
  MIC: 0.05 µg/mL
[17]
  MIC: 0.78 µg/mL
[18]
  MIC: 1.56 µg/mL
[19]
  MIC: 0.1 µg/mL
[20]; [31]
  MIC: 0.1 µg/mL

## CC(C)(ON=C(C(=O)NC1C(=O)N2C(C(=O)O)=C(CSc3nc(-c4ccc(O)c(O)c4)c(CC(=O)O)s3)CSC12)c1csc(N)n1)C(=O)O (stereo not drawn) [Example 59 (I), trisodium 7β-[2-(2-aminothiazol-4-yl)-2-(1-carboxylate-1-methylethoxyimino)acetamido]-3-[4-(3,4-dihydroxyphenyl)-5-carboxylatemethylthiazol-2yl]thiomethyl-3-cephem-4-carboxylate]
[1]
  MIC: 0.025 µg/mL
[2]
  MIC: 0.05 µg/mL
[3]; [21]
  MIC: < 0.006 µg/mL
[4]; AKR17, 16 h, read-out: Minimum Inhibitory Concentration (MIC), Ps. aeruginosa AKR17, 10^6 CFU/ml
  MIC: 1.56 µg/mL
[5]
  MIC: 1.56 µg/mL
[6]; [30]
  MIC: 1.56 µg/mL
[7]; [32]
  MIC: 100 µg/mL
[8]; [24]
  MIC: 0.39 µg/mL
[9]; [25]
  MIC: 1.56 µg/mL
[10]
  MIC: 0.1 µg/mL
[11]
  MIC: 0.2 µg/mL
[12]
  MIC: 0.1 µg/mL
[13]; P. vulgaris HX-19, 10^6 CFU/ml
  MIC: 0.025 µg/mL
[14]
  MIC: 0.2 µg/mL
[15]; K. pneumoniae PCI-602, read-out: Minimum Inhibitory Concentration (MIC)
  MIC: 0.0125 µg/mL
[16]; [27]
  MIC: 0.2 µg/mL
[17]
  MIC: 1.56 µg/mL
[18]
  MIC: 1.56 µg/mL
[19]
  MIC: 0.1 µg/mL
[20]; [28]
  MIC: 0.2 µg/mL
